Biological target: T1, KCC2 (Homo sapiens, UniProt Q9H2X9)
T1 construct: expressed in transfected cells; host or cells: HEK293 cells electroporated (Maxcyte STX) with the pcDNA3.1 KCC2 plasmid
T1 sequence (Q9H2X9 1-1139): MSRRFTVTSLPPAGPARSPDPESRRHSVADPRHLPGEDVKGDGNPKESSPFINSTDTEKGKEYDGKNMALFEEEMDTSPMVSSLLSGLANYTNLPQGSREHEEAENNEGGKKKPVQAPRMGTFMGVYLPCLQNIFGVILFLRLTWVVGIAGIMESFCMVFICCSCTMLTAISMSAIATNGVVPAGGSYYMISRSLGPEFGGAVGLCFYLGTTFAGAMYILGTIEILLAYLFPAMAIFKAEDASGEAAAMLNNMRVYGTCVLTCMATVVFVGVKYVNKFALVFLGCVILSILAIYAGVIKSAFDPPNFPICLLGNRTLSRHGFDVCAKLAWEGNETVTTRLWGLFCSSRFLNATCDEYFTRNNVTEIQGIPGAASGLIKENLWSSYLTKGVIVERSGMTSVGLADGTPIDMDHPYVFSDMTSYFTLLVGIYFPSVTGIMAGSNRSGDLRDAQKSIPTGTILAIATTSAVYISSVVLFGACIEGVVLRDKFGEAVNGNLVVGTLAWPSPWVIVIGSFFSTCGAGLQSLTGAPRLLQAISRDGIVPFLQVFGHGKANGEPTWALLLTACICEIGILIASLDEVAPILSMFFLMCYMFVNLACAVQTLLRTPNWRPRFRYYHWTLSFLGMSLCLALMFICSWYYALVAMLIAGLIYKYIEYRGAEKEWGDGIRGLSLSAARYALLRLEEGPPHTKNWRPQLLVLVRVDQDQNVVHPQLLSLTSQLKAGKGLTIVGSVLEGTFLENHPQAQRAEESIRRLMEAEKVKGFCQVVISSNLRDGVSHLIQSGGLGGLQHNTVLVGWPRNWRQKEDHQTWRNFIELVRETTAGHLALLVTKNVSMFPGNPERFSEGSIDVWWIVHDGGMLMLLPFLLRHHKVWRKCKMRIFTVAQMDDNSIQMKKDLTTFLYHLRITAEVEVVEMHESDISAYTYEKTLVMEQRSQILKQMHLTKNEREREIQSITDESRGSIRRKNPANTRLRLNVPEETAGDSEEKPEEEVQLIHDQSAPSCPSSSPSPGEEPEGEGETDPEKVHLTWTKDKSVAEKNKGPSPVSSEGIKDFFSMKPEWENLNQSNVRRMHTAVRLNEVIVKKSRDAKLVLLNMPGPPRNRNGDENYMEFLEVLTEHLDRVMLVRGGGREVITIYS
Assay: KCC2 thallium transport FLIPR-based assay (Tl+ influx in HEK293 cells expressing KCC2)
Assay type: cell-based
Settings: 90 min compound incubation at RT, thallium flux at 120 s used to determine EC50
Summary of the method: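 Transient electroporation of codon-optimised human KCC2 into HEK293 cells, plated and cultured 48 h before dye loading (1 h, RT). Compounds run as a 12-point 1:2 series from 100 μM top, 90 min RT in buffer containing bumetanide; Tl+ flux read by FLIPR after stimulus addition, 1 s intervals over 120 s, with the 120 s signal used for EC50.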

Row | EC50 | SMILES
1 | 5.71 µM | CC(C)N1Cc2c(Nc3ccc(C4CCC4)cc3)nc(N3CCOCC3)nc2C1=O [Example 63, 4-[(4-cyclobutylphenyl)amino]-2-(morpholin-4-yl)-6-(propan-2-yl)-5,6-dihydro-7H-pyrrolo[3,4-d]pyrimidin-7-one]
2 | 5.76 µM | CC(C)N1Cc2c(Nc3ccc(OC4CCCC4)cc3)nc(N3CCO[C@H](C)C3)nc2C1=O [Example 64, 4-{[4-(cyclopentyloxy)phenyl]amino}-2-[(2R)-2-methylmorpholin-4-yl]-6-(propan-2-yl)-5,6-dihydro-7H-pyrrolo[3,4-d]pyrimidin-7-one]
3 | 7.65 µM | CC(C)N1Cc2c(Nc3ccc(CC(F)(F)F)cc3)nc(N3CCO[C@H](C)C3)nc2C1=O [Example 65, 2-[(2R)-2-methylmorpholin-4-yl]-6-(propan-2-yl)-4-{[4-(2,2,2-trifluoroethyl)phenyl]amino}-5,6-dihydro-7H-pyrrolo[3,4-d]pyrimidin-7-one]
4 | 0.917 µM | CC(C)N1Cc2c(Nc3ccc(-c4ccc(OCCNC(=O)OC(C)(C)C)cc4)cc3)nc(N3CCOC(C4CC4)C3)nc2C1=O (stereo not shown) [Example 66, tert-butyl {2-[(4′-{[2-(2-cyclopropylmorpholin-4-yl)-7-oxo-6-(propan-2-yl)-6,7-dihydro-5H-pyrrolo[3,4-d]pyrimidin-4-yl]amino}[1,1′-biphenyl]-4-yl)oxy]ethyl}carbamate]
5 | 4.07 µM | CCN1Cc2c(Nc3ccc(C(C)C)cc3)nc(N3CCO[C@H](C)C3)nc2C1=O [Example 67, 6-ethyl-2-[(2R)-2-methylmorpholin-4-yl]-4-{[4-(propan-2-yl)phenyl]amino}-5,6-dihydro-7H-pyrrolo[3,4-d]pyrimidin-7-one]
6 | 1.94 µM | CCN1Cc2c(Nc3ccc(C4CCCCC4)cc3)nc(N3CCO[C@H](C)C3)nc2C1=O [Example 68, 4-[(4-cyclohexylphenyl)amino]-6-ethyl-2-[(2R)-2-methylmorpholin-4-yl]-5,6-dihydro-7H-pyrrolo[3,4-d]pyrimidin-7-one]
7 | 1.56 µM | CC(C)N1Cc2c(Nc3ccc(-c4ccc(OCCNC(=O)OC(C)(C)C)cc4)cc3)nc(N3CCOCC3)nc2C1=O [Example 69, tert-Butyl (2-((4′-((6-isopropyl-2-morpholino-7-oxo-6,7-dihydro-5H-pyrrolo[3,4-d]pyrimidin-4-yl)amino)-[1,1′-biphenyl]-4-yl)oxy)ethyl)carbamate]
8 | 1.83 µM | C#CCCC1(CCOc2ccc(-c3ccc(Nc4nc(N5CCOCC5)nc5c4CN(C(C)C)C5=O)cc3)cc2)N=N1 [Example 70, 4-[(4′-{2-[3-(but-3-yn-1-yl)-3H-diaziren-3-yl]ethoxy}[1,1′-biphenyl]-4-yl)amino]-2-(morpholin-4-yl)-6-(propan-2-yl)-5,6-dihydro-7H-pyrrolo[3,4-d]pyrimidin-7-one]
9 | 4.13 µM | C#CCOc1ccc(-c2ccc(Nc3nc(N4CCOCC4)nc4c3CN(C(C)C)C4=O)cc2)cc1 [Example 71, 2-(morpholin-4-yl)-6-(propan-2-yl)-4-({4′-[(prop-2-yn-1-yl)oxy][1,1′-biphenyl]-4-yl}amino)-5,6-dihydro-7H-pyrrolo[3,4-d]pyrimidin-7-one]
10 | 1.53 µM | C[C@@H]1CN(c2nc(Nc3ccc(C4CCCCC4)cc3)c3c(n2)C(=O)N(CCCN(C)C)C3)CCO1 [Example 72, (R)-4-((4-cyclohexylphenyl)amino)-6-(3-(dimethylamino)propyl)-2-(2-methylmorpholino)-5,6-dihydro-7H-pyrrolo[3,4-d]pyrimidin-7-one]
11 | 2.73 µM | C[C@@H]1CN(c2nc(Nc3ccc(C4CCCCC4)cc3)c3c(n2)C(=O)N(CCN(C)C)C3)CCO1 [Example 73, 4-[(4-cyclohexylphenyl)amino]-6-[2-(dimethylamino)ethyl]-2-[(2R)-2-methylmorpholin-4-yl]-5,6-dihydro-7H-pyrrolo[3,4-d]pyrimidin-7-one]
12 | 3.7 µM | C[C@@H]1CN(c2nc(Nc3ccc(C4CCC4)cc3)c3c(n2)C(=O)N(CCCN(C)C)C3)CCO1 [Example 74, 4-[(4-cyclobulylphenyl)amino]-6-[3-(dimethylamino)propyl]-2-[(2R)-2-methylmorpholin-4-yl]-5,6-dihydro-7H-pyrrolo[3,4-d]pyrimidin-7-one]
13 | 3.77 µM | C[C@@H]1CN(c2nc(Nc3ccc(C4CCC4)cc3)c3c(n2)C(=O)N(CCN(C)C)C3)CCO1 [Example 75, 4-[(4-cyclobutylphenyl)amino]-6-[2-(dimethylamino)ethyl]-2-[(2R)-2-methylmorpholin-4-yl]-5,6-dihydro-7H-pyrrolo[3,4-d]pyrimidin-7-one]
14 | 6.89 µM | C#CCN1Cc2c(Nc3ccc(C(C)C)cc3)nc(N3CCOCC3)nc2C1=O [Example 76, 2-(morpholin-4-yl)-4-{[4-(propan-2-yl)phenyl]amino}-6-(prop-2-yn-1-yl)-5,6-dihydro-7H-pyrrolo[3,4-d]pyrimidin-7-one]
15 | 3.08 µM | CC(C)N1Cc2c(Nc3ccc(C4CCCCC4)cc3)nc(C3CCOCC3)nc2C1=O [Example 78, 4-((4-cyclohexylphenyl)amino)-6-isopropyl-2-(tetrahydro-2H-pyran-4-yl)-5,6-dihydro-7H-pyrrolo[3,4-d]pyrimidin-7-one]
16 | 6.3 µM | CC(C)N1Cc2c(Nc3ccc(C4CCCCC4)cc3)nc(-n3ccnc3)nc2C1=O [Example 79, 4-((4-cyclohexylphenyl)amino)-2-(1H-imidazol-1-yl)-6-isopropyl-5,6-dihydro-7H-pyrrolo[3,4-d]pyrimidin-7-one]
17 | 1.8 µM | Cc1ccccc1-c1ccc(Nc2nc(C3=CCOCC3)nc3c2CN(C(C)C)C3=O)cc1 [Example 80, 2-(3,6-dihydro-2H-pyran-4-yl)-6-isopropyl-4-((2′-methyl-[1,1′-biphenyl]-4-yl)amino)-5,6-dihydro-7H-pyrrolo[3,4-d]pyrimidin-7-one]
18 | 2.47 µM | C#CCCC1(CCOc2ccc(-c3ccc(Nc4nc(C5=CCOCC5)nc5c4CN(C(C)C)C5=O)cc3)cc2)N=N1 [Example 81, 4-((4′-(2-(3-(but-3-yn-1-yl)-3H-diazirin-3-yl)ethoxy)-[1,1′-biphenyl]-4-yl)amino)-2-(3,6-dihydro-2H-pyran-4-yl)-6-isopropyl-5,6-dihydro-7H-pyrrolo[3,4-d]pyrimidin-7-one]
19 | 2.29 µM | CC(C)N1Cc2c(Nc3ccc(-c4ccccc4)c(F)c3)nc(C3=CCOCC3)nc2C1=O [Example 82, 2-(3,6-dihydro-2H-pyran-4-yl)-4-((2-fluoro-[1,1′-biphenyl]-4-yl)amino)-6-isopropyl-5,6-dihydro-7H-pyrrolo[3,4-d]pyrimidin-7-one]
20 | 3.88 µM | CC(C)N1Cc2c(Nc3ccc(C(F)(F)C(F)(F)F)cc3)nc(N3CCOCC3)nc2C1=O [Example 83, 2-(morpholin-4-yl)-4-{[4-(pentafluoroethyl)phenyl]amino}-6-(propan-2-yl)-5,6-dihydro-7H-pyrrolo[3,4-d]pyrimidin-7-one]
21 | 2.09 µM | CC(C)N1Cc2c(Nc3ccc(-c4ccccc4)c(F)c3)nc(N3CCOCC3)nc2C1=O [Example 84, 4-[(2-fluoro[1,1′-biphenyl]-4-yl)amino]-2-(morpholin-4-yl)-6-(propan-2-yl)-5,6-dihydro-7H-pyrrolo[3,4-d]pyrimidin-7-one]
22 | 8.41 µM | CC(C)N1Cc2c(Nc3ccc(-c4ccc(Cl)c(Cl)c4)cc3)nc(N3CCOCC3)nc2C1=O [Example 85, 4-[(3′,4′-dichloro[1,1′-biphenyl]-4-yl)amino]-2-(morpholin-4-yl)-6-(propan-2-yl)-5,6-dihydro-7H-pyrrolo[3,4-d]pyrimidin-7-one]
23 | 5.83 µM | CC(C)c1ccc(Nc2nc(N3CCOCC3)nc3c2CN(C(C)C)C3=O)cc1 [Example 86, 2-(morpholin-4-yl)-6-(propan-2-yl)-4-{[4-(propan-2-yl)phenyl]amino}-5,6-dihydro-7H-pyrrolo[3,4-d]pyrimidin-7-one]
24 | 8.18 µM | CC(C)N1Cc2c(Nc3ccc(C(C)(C)C)cc3)nc(N3CCOCC3)nc2C1=O [Example 87, 4-[(4-tert-butylphenyl)amino]-2-(morpholin-4-yl)-6-(propan-2-yl)-5,6-dihydro-7H-pyrrolo[3,4-d]pyrimidin-7-one]
25 | 3.52 µM | Cc1cc(Nc2nc(N3CCOCC3)nc3c2CN(C(C)C)C3=O)ccc1-c1ccccc1 [Example 88, 4-[(2-methyl[1,1′-biphenyl]-4-yl)amino]-2-(morpholin-4-yl)-6-(propan-2-yl)-5,6-dihydro-7H-pyrrolo[3,4-d]pyrimidin-7-one]
